Data from patent US5730968A, “Segmented chelating polymers as imaging and therapeutic agents” (Sterling Winthrop Inc., priority 1994, dated 1998).

Assay: blood pool retention time in rodents, against […]
Format: in vivo
Excerpt: Retention time in the chart below is reported as the blood pool half life, T 1/2 (minutes) for half of the composition to be depleted from the blood pool.

CNC[C@H](O)[C@@H](O)[C@H](O)[C@H](O)CO.CNC[C@H](O)[C@@H](O)[C@H](O)[C@H](O)CO.O=C([O-])CN(CCN(CC(=O)[O-])CC(=O)O)CCN(CC(=O)[O-])CC(=O)O.[Gd+3] [Magnevist]
Blood Pool T1/2 (blood pool half life, for half of the composition to be depleted from the blood pool): 12 min
